# Values quoted from earlier work in patent US20190167750A1, “NUTRITIONAL SUPPLEMENTS FOR INCREASING MALE TESTOSTERONE LEVELS” (Innovus Pharmaceuticals, Inc., priority 2017, published 2019).
# What was measured:
# human CYP3A4 = human CYP3A4 (Homo sapiens, UniProt P08684)
# P-glycoprotein = P-glycoprotein (Homo sapiens, UniProt P08183)
# Chain of P-glycoprotein (P08183 whole entry): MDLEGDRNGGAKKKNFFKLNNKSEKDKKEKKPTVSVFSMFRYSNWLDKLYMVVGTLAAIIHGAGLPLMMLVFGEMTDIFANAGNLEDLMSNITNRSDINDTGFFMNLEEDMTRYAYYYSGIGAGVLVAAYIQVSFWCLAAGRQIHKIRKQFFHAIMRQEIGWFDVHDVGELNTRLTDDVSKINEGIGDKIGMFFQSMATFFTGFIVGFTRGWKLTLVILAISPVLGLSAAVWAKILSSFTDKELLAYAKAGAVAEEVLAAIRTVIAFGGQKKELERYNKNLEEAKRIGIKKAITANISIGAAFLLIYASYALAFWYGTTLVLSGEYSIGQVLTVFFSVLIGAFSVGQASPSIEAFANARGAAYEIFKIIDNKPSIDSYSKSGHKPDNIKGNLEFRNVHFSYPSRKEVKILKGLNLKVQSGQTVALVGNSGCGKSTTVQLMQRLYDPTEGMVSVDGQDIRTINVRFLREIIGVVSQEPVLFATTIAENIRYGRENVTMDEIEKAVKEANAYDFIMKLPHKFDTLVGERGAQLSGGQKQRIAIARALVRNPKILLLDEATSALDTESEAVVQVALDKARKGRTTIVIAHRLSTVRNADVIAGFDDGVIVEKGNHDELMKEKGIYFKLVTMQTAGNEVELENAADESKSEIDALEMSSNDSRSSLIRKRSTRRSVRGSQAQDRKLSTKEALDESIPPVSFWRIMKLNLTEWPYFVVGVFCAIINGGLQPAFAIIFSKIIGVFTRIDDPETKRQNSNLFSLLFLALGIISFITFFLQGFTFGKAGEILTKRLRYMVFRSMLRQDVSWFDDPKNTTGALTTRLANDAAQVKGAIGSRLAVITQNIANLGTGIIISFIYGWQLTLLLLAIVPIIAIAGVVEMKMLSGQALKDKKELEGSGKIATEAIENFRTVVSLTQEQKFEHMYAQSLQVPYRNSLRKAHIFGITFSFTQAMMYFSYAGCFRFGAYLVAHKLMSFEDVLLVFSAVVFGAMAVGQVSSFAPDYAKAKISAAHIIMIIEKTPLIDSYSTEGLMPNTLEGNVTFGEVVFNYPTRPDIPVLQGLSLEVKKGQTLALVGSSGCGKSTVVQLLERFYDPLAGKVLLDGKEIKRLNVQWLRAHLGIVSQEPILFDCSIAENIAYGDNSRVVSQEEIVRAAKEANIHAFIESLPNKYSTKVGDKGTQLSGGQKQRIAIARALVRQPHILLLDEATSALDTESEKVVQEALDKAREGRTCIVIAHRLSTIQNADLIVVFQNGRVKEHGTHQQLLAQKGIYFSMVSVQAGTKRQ
# Chain of human CYP3A4 (P08684 whole entry): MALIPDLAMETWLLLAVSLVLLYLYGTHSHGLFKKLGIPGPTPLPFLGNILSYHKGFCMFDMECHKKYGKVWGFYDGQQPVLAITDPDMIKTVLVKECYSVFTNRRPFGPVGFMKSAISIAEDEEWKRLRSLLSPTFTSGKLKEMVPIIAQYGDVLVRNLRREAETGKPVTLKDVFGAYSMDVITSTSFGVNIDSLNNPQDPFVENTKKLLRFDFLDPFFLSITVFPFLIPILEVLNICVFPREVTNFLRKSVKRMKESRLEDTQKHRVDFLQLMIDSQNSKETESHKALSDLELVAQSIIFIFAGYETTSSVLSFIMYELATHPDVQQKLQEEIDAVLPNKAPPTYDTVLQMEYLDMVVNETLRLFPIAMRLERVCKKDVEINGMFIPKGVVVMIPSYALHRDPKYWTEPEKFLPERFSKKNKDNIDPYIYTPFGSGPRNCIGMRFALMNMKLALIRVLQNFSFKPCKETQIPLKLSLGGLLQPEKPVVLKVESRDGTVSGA
compound,measurement,setting,value
"O=C(/C=C/C=C/c1ccc2c(c1)OCO2)N1CCCCC1 [Bioperine, (2E,4E)-5-(1,3-benzodioxol-5-yl)-1-(piperidin-1-yl)penta-2,4-dien-1-one]",inhibition of human CYP3A4,human CYP3A4,inhibits
same,inhibition of P-glycoprotein,P-glycoprotein,inhibits
